Laboratory results: ChEMBL document CHEMBL1201862, “PubChem BioAssay data set” (2004)
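Briefly, cells in 96-well plates were exposed to five compound concentrations for 48 h, and endpoints were estimated by linear interpolation. Here, GI50 denotes the concentration required for 50% inhibition of growth.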 Activity calls are given as the source filed them. Rule as the data show it: active = GI50 up to about 1.1 µM and inactive = higher.

Key:
Assay in all cases: NCI anticancer screen, dose series, 48 h
DU-145 = system: DU-145
CCRF-CEM = system: CCRF-CEM
OVCAR-4 = system: OVCAR-4
EKVX = system: EKVX
786-0 = system: 786-0
SNB-19 = system: SNB-19
COLO 205 = system: COLO 205
OVCAR-8 = system: OVCAR-8
UO-31 = system: UO-31
A549 = system: A549
NCI/ADR-RES = system: NCI/ADR-RES
TK-10 = system: TK-10
MDA-MB-231 = system: MDA-MB-231
HT-29 = system: HT-29
SK-MEL-28 = system: SK-MEL-28
NCI-H23 = system: NCI-H23
RPMI-8226 = system: RPMI-8226
SK-MEL-2 = system: SK-MEL-2
SF-539 = system: SF-539
A498 = system: A498

Measured: GI50

Cc1cc(O)c(C(c2cccnc2)c2c(O)cc(C)[nH]c2=O)c(=O)[nH]1
inactive: DU-145 > 100 µM | CCRF-CEM > 100 µM | OVCAR-4 > 100 µM | EKVX > 100 µM | 786-0 > 100 µM | SNB-19 > 100 µM | COLO 205 > 100 µM | OVCAR-8 > 100 µM | UO-31 > 100 µM | A549 > 100 µM | NCI/ADR-RES > 100 µM | TK-10 > 100 µM | MDA-MB-231 > 100 µM | HT-29 > 100 µM | SK-MEL-28 > 100 µM | NCI-H23 > 100 µM | RPMI-8226 > 100 µM

Cc1cccc(/C=C2\CCCc3ccccc3C2=O)c1
inactive: DU-145 28.6 µM | CCRF-CEM 13.7 µM | OVCAR-4 19.1 µM | EKVX 20.6 µM | 786-0 32.1 µM | SNB-19 24.4 µM | COLO 205 18.9 µM | OVCAR-8 19.1 µM | UO-31 26.8 µM | A549 24.2 µM | NCI/ADR-RES 22.4 µM | TK-10 27.4 µM | SK-MEL-2 16.7 µM | MDA-MB-231 18.5 µM | HT-29 18.5 µM | SK-MEL-28 23.8 µM | SF-539 18.7 µM | NCI-H23 25.4 µM | RPMI-8226 8.2 µM

CC(C)CC(NC(=O)OCc1ccccc1)C(=O)NCCCCC(N)C(=O)NC(CCCCNC(=O)C(CC(C)C)NC(=O)OCc1ccccc1)C(=O)NC(CCCCNC(=O)C(CC(C)C)NC(=O)OCc1ccccc1)C(=O)NC(CCCCNC(=O)C(CC(C)C)NC(=O)OCc1ccccc1)C(=O)NC(CCCCNC(=O)C(CC(C)C)NC(=O)OCc1ccccc1)C(=O)NC(CCCCNC(=O)C(CC(C)C)NC(=O)OCc1ccccc1)C(=O)O (stereo not given)
inactive: DU-145 > 100 µM | A498 > 100 µM | CCRF-CEM > 100 µM | OVCAR-4 > 100 µM | 786-0 > 100 µM | SNB-19 > 100 µM | OVCAR-8 > 100 µM | UO-31 > 100 µM | A549 > 100 µM | TK-10 > 100 µM | SK-MEL-2 > 100 µM | MDA-MB-231 > 100 µM | HT-29 > 100 µM | NCI-H23 > 100 µM | RPMI-8226 > 100 µM

CCCCCCCCCCCCCCCCCC(=O)OCC(COC(=O)CCCN)OC(=O)CCCN (stereo not given)
inactive: DU-145 19.6 µM | CCRF-CEM 28.8 µM | OVCAR-4 22 µM | EKVX 20.8 µM | 786-0 17.3 µM | SNB-19 21.8 µM | COLO 205 16.5 µM | OVCAR-8 18.5 µM | UO-31 1.96 µM | A549 4.1 µM | NCI/ADR-RES 19.7 µM | TK-10 20.8 µM | MDA-MB-231 15 µM | HT-29 16.1 µM | SK-MEL-28 19.9 µM | SF-539 18.2 µM | NCI-H23 16.4 µM

Cc1nc2cccc(F)c2c(=O)n1C1CCCCNC1=O (stereo not given)
inactive: DU-145 > 10 µM | CCRF-CEM > 10 µM | OVCAR-4 > 10 µM | EKVX > 10 µM | 786-0 > 10 µM | SNB-19 > 10 µM | COLO 205 > 10 µM | OVCAR-8 > 10 µM | UO-31 > 10 µM | A549 > 10 µM | NCI/ADR-RES > 10 µM | TK-10 > 10 µM | SK-MEL-2 > 10 µM | MDA-MB-231 > 10 µM | HT-29 > 10 µM | SK-MEL-28 > 10 µM | SF-539 > 10 µM | NCI-H23 > 10 µM | RPMI-8226 > 10 µM

c1cc(CN2CCNCCNCCNCC2)cc(CN2CCNCCNCCNCC2)c1
inactive: DU-145 > 100 µM | OVCAR-4 > 100 µM | EKVX > 100 µM | 786-0 > 100 µM | SNB-19 > 100 µM | COLO 205 > 100 µM | OVCAR-8 > 100 µM | UO-31 > 100 µM | A549 > 100 µM | NCI/ADR-RES > 100 µM | TK-10 > 100 µM | SK-MEL-2 > 100 µM | MDA-MB-231 > 100 µM | HT-29 > 100 µM | SK-MEL-28 > 100 µM | SF-539 > 100 µM | NCI-H23 > 100 µM | RPMI-8226 > 100 µM
